In PubChem BioAssay AID256 (DTP/NCI, 2004):
Values joined by “and” are separate entries in the source; they are usually repeats but may differ in a detail not shown here. Equal entries are not always repeated. Toxic doses and inconclusive results are not listed.

System: CD2F1 mice, L1210 leukemia ip, survival T/C
Experiment: NCI In Vivo Anticancer Drug Screen. Data for tumor model L1210 Leukemia (intraperitoneal) in CD2F1 (CDF1) mice
Details: higher = longer survival
How it was run: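 Each value reflects a quotient of treated over vehicle control outcomes in mice with a transplanted tumor.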

[1] = endpoint: mean survival time, dose: 100.0 mg/kg/injection, schedule: Q01DX009 (ip), vehicle: saline with Tween-80
[2] = endpoint: mean survival time, dose: 200.0 mg/kg/injection, schedule: Q01DX009 (ip), vehicle: saline with Tween-80
[3] = endpoint: mean survival time, dose: 400.0 mg/kg/injection, schedule: Q01DX009 (ip), vehicle: saline with Tween-80
[4] = endpoint: mean survival time, dose: 100.0 mg/kg/injection, schedule: Q04DX003 (ip), vehicle: saline with Tween-80
[5] = endpoint: mean survival time, dose: 200.0 mg/kg/injection, schedule: Q04DX003 (ip), vehicle: saline with Tween-80
[6] = endpoint: mean survival time, dose: 400.0 mg/kg/injection, schedule: Q04DX003 (ip), vehicle: saline with Tween-80

For NC(=S)N/N=C/c1ccc(O)cn1, the T/C (endpoint: mean survival time, dose: 12.5 mg/kg/injection, schedule: Q01DX009 (ip), vehicle: saline) was 124 % of control, the T/C (endpoint: mean survival time, dose: 12.5 mg/kg/injection, schedule: Q03HX024 (ip), vehicle: saline) was 153 % of control and 163 % of control and the T/C (endpoint: mean survival time, dose: 18.8 mg/kg/injection, schedule: Q01DX009 (ip), vehicle: saline with Tween-80) was 162 % of control. For the same compound, the T/C (endpoint: mean survival time, dose: 25.0 mg/kg/injection, schedule: Q01DX009 (ip), vehicle: saline with Tween-80) was 155 % of control, the T/C (endpoint: mean survival time, dose: 25.0 mg/kg/injection, schedule: Q01DX009 (ip), vehicle: saline) was 150 % of control and 170 % of control and the T/C (endpoint: mean survival time, dose: 25.0 mg/kg/injection, schedule: Q01DX009 (oral), vehicle: saline) was 94 % of control. For the same compound, the T/C (endpoint: mean survival time, dose: 25.0 mg/kg/injection, schedule: Q03HX024 (ip), vehicle: saline) was 168 % of control and 217 % of control, the T/C (endpoint: mean survival time, dose: 37.5 mg/kg/injection, schedule: Q01DX009 (ip), vehicle: saline with Tween-80) was 160 % of control and 166 % of control and the T/C (endpoint: mean survival time, dose: 50.0 mg/kg/injection, schedule: Q01DX009 (ip), vehicle: saline with Tween-80) was 183 % of control. The T/C (endpoint: mean survival time, dose: 50.0 mg/kg/injection, schedule: Q01DX009 (ip), vehicle: saline) was 151 % of control and 154 % of control, the T/C (endpoint: mean survival time, dose: 50.0 mg/kg/injection, schedule: Q01DX009 (oral), vehicle: saline) was 95 % of control and the T/C (endpoint: mean survival time, dose: 50.0 mg/kg/injection, schedule: Q03HX024 (ip), vehicle: saline) was 162 % of control and 211 % of control. For the same compound, the T/C [1] was 102 % of control, the T/C (endpoint: mean survival time, dose: 100.0 mg/kg/injection, schedule: Q01DX009 (oral), vehicle: saline) was 103 % of control and the T/C (endpoint: mean survival time, dose: 150.0 mg/kg/injection, schedule: Q01DX009 (ip), vehicle: saline with Tween-80) was 103 % of control. For the same compound, the T/C (endpoint: mean survival time, dose: 200.0 mg/kg/injection, schedule: Q01DX009 (ip), vehicle: saline) was 115 % of control and 110 % of control, the T/C (endpoint: mean survival time, dose: 200.0 mg/kg/injection, schedule: Q01DX009 (oral), vehicle: saline) was 102 % of control and the T/C (endpoint: mean survival time, dose: 400.0 mg/kg/injection, schedule: Q01DX009 (ip), vehicle: saline) was 88 % of control and 92 % of control. The T/C (endpoint: mean survival time, dose: 400.0 mg/kg/injection, schedule: Q01DX009 (oral), vehicle: saline) was 114 % of control, the T/C (endpoint: median survival time, dose: 20.0 mg/kg/injection, schedule: Q03HX024 (ip), vehicle: saline) was 152 % of control and 566 % of control and the T/C (endpoint: median survival time, dose: 21.8 mg/kg/injection, schedule: Q03HX008 (ip), vehicle: suspension in saline) was 185 % of control. For the same compound, the T/C (endpoint: median survival time, dose: 22.5 mg/kg/injection, schedule: Q03HX024 (ip), vehicle: suspension in saline) was 214 % of control, the T/C (endpoint: median survival time, dose: 32.6 mg/kg/injection, schedule: Q03HX008 (ip), vehicle: suspension in saline) was 188 % of control and the T/C (endpoint: median survival time, dose: 40.0 mg/kg/injection, schedule: Q03HX024 (ip), vehicle: saline) was 210 % of control and 566 % of control. The T/C (endpoint: median survival time, dose: 45.0 mg/kg/injection, schedule: Q03HX024 (ip), vehicle: suspension in saline) was 238 % of control, the T/C (endpoint: median survival time, dose: 45.0 mg/kg/injection, schedule: Q04DX003 (ip), vehicle: suspension in saline) was 119 % of control and the T/C (endpoint: median survival time, dose: 48.6 mg/kg/injection, schedule: Q03HX008 (ip), vehicle: suspension in saline) was 232 % of control. The T/C (endpoint: median survival time, dose: 50.0 mg/kg/injection, schedule: Q03HX024 (ip), vehicle: saline) was 566 % of control, the T/C (endpoint: median survival time, dose: 60.0 mg/kg/injection, schedule: Q03HX024 (ip), vehicle: saline) was 566 % of control and the T/C (endpoint: median survival time, dose: 80.0 mg/kg/injection, schedule: Q03HX024 (ip), vehicle: saline) was 119 % of control. The T/C (endpoint: median survival time, dose: 90.0 mg/kg/injection, schedule: Q04DX003 (ip), vehicle: suspension in saline) was 122 % of control, the T/C (endpoint: median survival time, dose: 108.3 mg/kg/injection, schedule: Q03HX008 (ip), vehicle: suspension in saline) was 94 % of control and the T/C (endpoint: median survival time, dose: 161.6 mg/kg/injection, schedule: Q04DX003 (ip), vehicle: suspension in saline) was 152 % of control. The T/C (endpoint: median survival time, dose: 180.0 mg/kg/injection, schedule: Q03HX024 (ip), vehicle: suspension in saline) was 110 % of control, the T/C (endpoint: median survival time, dose: 241.2 mg/kg/injection, schedule: Q04DX003 (ip), vehicle: suspension in saline) was 156 % of control and the T/C (endpoint: median survival time, dose: 360.0 mg/kg/injection, schedule: Q04DX003 (ip), vehicle: suspension in saline) was 176 % of control and 211 % of control. The T/C (endpoint: median survival time, dose: 537.3 mg/kg/injection, schedule: Q04DX003 (ip), vehicle: suspension in saline) was 184 % of control and the T/C (endpoint: median survival time, dose: 720.0 mg/kg/injection, schedule: Q04DX003 (ip), vehicle: suspension in saline) was 122 % of control.

C=C(N=[N+]=[N-])c1ccccc1 was tested, and the T/C (endpoint: mean survival time, dose: 12.5 mg/kg/injection, schedule: Q01DX009 (ip), vehicle: other) was 110 % of control, the T/C (endpoint: mean survival time, dose: 25.0 mg/kg/injection, schedule: Q01DX009 (ip), vehicle: other) was 100 % of control and the T/C (endpoint: mean survival time, dose: 50.0 mg/kg/injection, schedule: Q01DX009 (ip), vehicle: other) was 100 % of control. The T/C (endpoint: mean survival time, dose: 100.0 mg/kg/injection, schedule: Q01DX009 (ip), vehicle: other) was 102 % of control.

With O=C1NC(=O)C2CC=CCC12 (stereo not given) the T/C [1] was 96 % of control, the T/C [2] was 102 % of control and the T/C [3] was 102 % of control.

For CC1(C)CC(NC(=O)CSc2ncnc3c2ncn3C2OC(CO)C(O)C2O)CC(C)(C)N1O (stereo not given), the T/C (endpoint: mean survival time, dose: 12.5 mg/kg/injection, schedule: Q01DX005 (ip), vehicle: water) was 96 % of control, the T/C (endpoint: mean survival time, dose: 25.0 mg/kg/injection, schedule: Q01DX005 (ip), vehicle: water) was 94 % of control and the T/C (endpoint: mean survival time, dose: 50.0 mg/kg/injection, schedule: Q01DX005 (ip), vehicle: water) was 94 % of control. For the same compound, the T/C (endpoint: mean survival time, dose: 100.0 mg/kg/injection, schedule: Q01DX005 (ip), vehicle: water) was 102 % of control and the T/C (endpoint: mean survival time, dose: 200.0 mg/kg/injection, schedule: Q01DX005 (ip), vehicle: water) was 96 % of control.

For CC(O)CN1CCN(CC(C)O)CC1.[I][Pt+2][I] (stereo not given), the T/C (endpoint: mean survival time, dose: 25.0 mg/kg/injection, schedule: Q04DX003 (ip), vehicle: saline with Tween-80) was 102 % of control, the T/C (endpoint: mean survival time, dose: 50.0 mg/kg/injection, schedule: Q04DX003 (ip), vehicle: saline with Tween-80) was 109 % of control and the T/C [4] was 95 % of control. The T/C [5] was 104 % of control and the T/C [6] was 100 % of control.

With O=C(O)c1ccccc1.[Cu+2] the T/C (endpoint: mean survival time, dose: 5.0 mg/kg/injection, schedule: Q01DX001 (ip), vehicle: saline) was 96 % of control, the T/C (endpoint: mean survival time, dose: 10.0 mg/kg/injection, schedule: Q01DX001 (ip), vehicle: saline) was 91 % of control and the T/C (endpoint: mean survival time, dose: 20.0 mg/kg/injection, schedule: Q01DX001 (ip), vehicle: saline) was 107 % of control. For the same compound, the T/C (endpoint: mean survival time, dose: 40.0 mg/kg/injection, schedule: Q01DX001 (ip), vehicle: saline) was 102 % of control and the T/C (endpoint: mean survival time, dose: 80.0 mg/kg/injection, schedule: Q01DX001 (ip), vehicle: saline) was 107 % of control.

In the case of N#C/C(=C(/C#N)c1ccccc1)c1ccccc1, the T/C [4] is reported as 96 % of control, the T/C [5] is reported as 94 % of control and the T/C [6] is reported as 88 % of control.

In the case of O=C(NC(=O)c1cn(C2OC(CO)C(O)C2O)nn1)Nc1ccc(Cl)cc1 (stereo not given), the T/C (endpoint: mean survival time, dose: 12.5 mg/kg/injection, schedule: Q01DX005 (ip), vehicle: other) is reported as 93 % of control and the T/C (endpoint: mean survival time, dose: 50.0 mg/kg/injection, schedule: Q01DX005 (ip), vehicle: other) is reported as 90 % of control.

O=C(O)C(=O)O.[Mn] was tested, and the T/C [4] was 100 % of control, the T/C [5] was 100 % of control and the T/C [6] was 96 % of control.

In the case of CCOP(=O)(NCCCSC)OCC, the T/C (endpoint: mean survival time, dose: 5.0 mg/kg/injection, schedule: Q01DX009 (ip), vehicle: saline) is reported as 96 % of control, the T/C (endpoint: mean survival time, dose: 10.0 mg/kg/injection, schedule: Q01DX009 (ip), vehicle: saline) is reported as 97 % of control and the T/C (endpoint: mean survival time, dose: 20.0 mg/kg/injection, schedule: Q01DX009 (ip), vehicle: saline) is reported as 88 % of control.

In the case of CN(C)/N=C/c1ccccn1, the T/C (endpoint: mean survival time, dose: 25.0 mg/kg/injection, schedule: Q04DX003 (ip), vehicle: saline) is reported as 98 % of control, the T/C (endpoint: mean survival time, dose: 50.0 mg/kg/injection, schedule: Q04DX003 (ip), vehicle: saline) is reported as 95 % of control and the T/C (endpoint: mean survival time, dose: 100.0 mg/kg/injection, schedule: Q04DX003 (ip), vehicle: saline) is reported as 101 % of control. For the same compound, the T/C (endpoint: mean survival time, dose: 200.0 mg/kg/injection, schedule: Q04DX003 (ip), vehicle: saline) was 120 % of control.

With CO[C@@]12[C@@H]3N[C@@H]3CN1C1=C(C(=O)C(NCC3CCCO3)=C(C)C1=O)[C@@H]2COC(N)=O (stereo not given in full) the T/C (endpoint: mean survival time, dose: 1.5 mg/kg/injection, schedule: Q01DX001 (ip), vehicle: distilled water + Tween-80) was 111 % of control, the T/C (endpoint: mean survival time, dose: 3.0 mg/kg/injection, schedule: Q01DX001 (ip), vehicle: distilled water + Tween-80) was 114 % of control and 116 % of control and the T/C (endpoint: mean survival time, dose: 6.0 mg/kg/injection, schedule: Q01DX001 (ip), vehicle: distilled water + Tween-80) was 121 % of control. For the same compound, the T/C (endpoint: mean survival time, dose: 36.0 mg/kg/injection, schedule: Q01DX001 (ip), vehicle: distilled water + Tween-80) was 158 % of control.

With OC(c1ccccc1)c1nc2ccccc2[nH]1 (stereo not given) the T/C [1] was 98 % of control, the T/C [4] was 101 % of control and the T/C [2] was 95 % of control. The T/C [5] was 96 % of control, the T/C [3] was 96 % of control and the T/C [6] was 100 % of control.
